A word on the TGI: it is the concentration giving total growth inhibition. Higher therefore signals less potent growth arrest.

Molecules are shown by their SMILES.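 In this assay, cells in 96-well plates receive the compound at five concentrations for 48 hours. Endpoints are linearly interpolated between the surrounding concentrations. The concentration for full growth arrest is given as TGI.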

In the first assay the test system is HS 578T breast. As to the kind of experiment: DTP human tumour cell line panel, 48 h.
`COC(=O)c1csc([C@@H](OC(=O)[C@H](C)[C@H](CCCC(C)(Cl)Cl)OC(=O)c2csc([C@H](O)CO)n2)C(C)C)n1` displayed a total growth inhibition concentration (TGI) of 6.65 µM.

`CC(=O)OCC1OC(N2C(C)=C(C(C)=O)C(c3ccc(Cl)cc3)C(C#N)=C2S)C(OC(C)=O)C(OC(C)=O)C1OC(C)=O` (stereo unspecified) yielded a TGI of over 100 µM.

For the molecule `C=C(C)C1CC2(C)C(C)CC(O)CC2C(OC(=O)C=C(C)C)C1O` (stereo unspecified), the total growth inhibition concentration (TGI) was over 100 µM.

`CC1(C)N/C(=C\[N+](=O)[O-])C(C)(C)N1O` came in with a TGI of over 10 µM.

The subject of a further assay is RXF 393 renal. As to the kind of experiment: DTP human tumour cell line panel, 48 h.
`COC(=O)c1csc([C@@H](OC(=O)[C@H](C)[C@H](CCCC(C)(Cl)Cl)OC(=O)c2csc([C@H](O)CO)n2)C(C)C)n1` gave a TGI of 4.53 µM.

The molecule `CC(=O)OCC1OC(N2C(C)=C(C(C)=O)C(c3ccc(Cl)cc3)C(C#N)=C2S)C(OC(C)=O)C(OC(C)=O)C1OC(C)=O` (stereo unspecified) yielded a total growth inhibition concentration (TGI) of over 100 µM.

`C=C(C)C1CC2(C)C(C)CC(O)CC2C(OC(=O)C=C(C)C)C1O` (stereo unspecified) gave a total growth inhibition concentration (TGI) of over 100 µM.

Regarding `CC1(C)N/C(=C\[N+](=O)[O-])C(C)(C)N1O`, the total growth inhibition concentration (TGI) is over 10 µM.

For another assay, the system named is SF-295 CNS. The assay is described as follows: DTP human tumour cell line panel, 48 h.
As to `COC(=O)c1csc([C@@H](OC(=O)[C@H](C)[C@H](CCCC(C)(Cl)Cl)OC(=O)c2csc([C@H](O)CO)n2)C(C)C)n1`, the TGI was found to be 29.1 µM.

Take `CC(=O)OCC1OC(N2C(C)=C(C(C)=O)C(c3ccc(Cl)cc3)C(C#N)=C2S)C(OC(C)=O)C(OC(C)=O)C1OC(C)=O` (stereo unspecified): the TGI was over 100 µM.

Regarding `C=C(C)C1CC2(C)C(C)CC(O)CC2C(OC(=O)C=C(C)C)C1O` (stereo unspecified), the concentration for total growth inhibition (TGI) stood at 84.3 µM.

`CC1(C)N/C(=C\[N+](=O)[O-])C(C)(C)N1O` displayed a total growth inhibition concentration (TGI) of over 10 µM.

In a further assay the test system is LOX IMVI melanoma. As to the kind of experiment: DTP human tumour cell line panel, 48 h.
In turn, `COC(=O)c1csc([C@@H](OC(=O)[C@H](C)[C@H](CCCC(C)(Cl)Cl)OC(=O)c2csc([C@H](O)CO)n2)C(C)C)n1` had a TGI of 23.5 µM.

Molecule `CC(=O)OCC1OC(N2C(C)=C(C(C)=O)C(c3ccc(Cl)cc3)C(C#N)=C2S)C(OC(C)=O)C(OC(C)=O)C1OC(C)=O` (stereo unspecified) gave a TGI of over 100 µM.

Regarding `C=C(C)C1CC2(C)C(C)CC(O)CC2C(OC(=O)C=C(C)C)C1O` (stereo unspecified), the total growth inhibition concentration (TGI) was over 100 µM.

In turn, `CC1(C)N/C(=C\[N+](=O)[O-])C(C)(C)N1O` came in with a TGI of over 10 µM.

The next assay relates to TK-10 renal. As to the kind of experiment: DTP human tumour cell line panel, 48 h.
Take `COC(=O)c1csc([C@@H](OC(=O)[C@H](C)[C@H](CCCC(C)(Cl)Cl)OC(=O)c2csc([C@H](O)CO)n2)C(C)C)n1`: the total growth inhibition concentration (TGI) worked out at 24.9 µM.

Molecule `CC(=O)OCC1OC(N2C(C)=C(C(C)=O)C(c3ccc(Cl)cc3)C(C#N)=C2S)C(OC(C)=O)C(OC(C)=O)C1OC(C)=O` (stereo unspecified) registered a TGI of over 100 µM.

Turning to `C=C(C)C1CC2(C)C(C)CC(O)CC2C(OC(=O)C=C(C)C)C1O` (stereo unspecified), the TGI was over 100 µM.

In turn, `CC1(C)N/C(=C\[N+](=O)[O-])C(C)(C)N1O` came in with a total growth inhibition concentration (TGI) of over 10 µM.

Another assay relates to MDA-MB-435. The assay is described as follows: DTP human tumour cell line panel, 48 h.
On to `COC(=O)c1csc([C@@H](OC(=O)[C@H](C)[C@H](CCCC(C)(Cl)Cl)OC(=O)c2csc([C@H](O)CO)n2)C(C)C)n1`, for which the TGI was found to be 26.8 µM.

Turning to `CC(=O)OCC1OC(N2C(C)=C(C(C)=O)C(c3ccc(Cl)cc3)C(C#N)=C2S)C(OC(C)=O)C(OC(C)=O)C1OC(C)=O` (stereo unspecified), the total growth inhibition concentration (TGI) is over 100 µM.

Take `C=C(C)C1CC2(C)C(C)CC(O)CC2C(OC(=O)C=C(C)C)C1O` (stereo unspecified): the total growth inhibition concentration (TGI) was over 100 µM.

With `CC1(C)N/C(=C\[N+](=O)[O-])C(C)(C)N1O`, the TGI is over 10 µM.

Another assay has as its system KM12 colon. The assay is described as follows: DTP human tumour cell line panel, 48 h.
With `COC(=O)c1csc([C@@H](OC(=O)[C@H](C)[C@H](CCCC(C)(Cl)Cl)OC(=O)c2csc([C@H](O)CO)n2)C(C)C)n1`, the TGI was determined as 29.4 µM.

For `CC(=O)OCC1OC(N2C(C)=C(C(C)=O)C(c3ccc(Cl)cc3)C(C#N)=C2S)C(OC(C)=O)C(OC(C)=O)C1OC(C)=O` (stereo unspecified), the TGI was over 100 µM.

In the case of `C=C(C)C1CC2(C)C(C)CC(O)CC2C(OC(=O)C=C(C)C)C1O` (stereo unspecified), the TGI is over 100 µM.

As for `CC1(C)N/C(=C\[N+](=O)[O-])C(C)(C)N1O`, the TGI is over 10 µM.

The test system of the next assay is A498 renal. As to the kind of experiment: DTP human tumour cell line panel, 48 h.
As for `COC(=O)c1csc([C@@H](OC(=O)[C@H](C)[C@H](CCCC(C)(Cl)Cl)OC(=O)c2csc([C@H](O)CO)n2)C(C)C)n1`, the concentration for total growth inhibition (TGI) was determined as 32.7 µM.

As for `CC(=O)OCC1OC(N2C(C)=C(C(C)=O)C(c3ccc(Cl)cc3)C(C#N)=C2S)C(OC(C)=O)C(OC(C)=O)C1OC(C)=O` (stereo unspecified), the total growth inhibition concentration (TGI) is over 100 µM.

The molecule `C=C(C)C1CC2(C)C(C)CC(O)CC2C(OC(=O)C=C(C)C)C1O` (stereo unspecified) displayed a TGI of over 100 µM.

`CC1(C)N/C(=C\[N+](=O)[O-])C(C)(C)N1O` displayed a TGI of over 10 µM.

A further assay concerns HOP-62 NSCLC. As to the kind of experiment: DTP human tumour cell line panel, 48 h.
In turn, `COC(=O)c1csc([C@@H](OC(=O)[C@H](C)[C@H](CCCC(C)(Cl)Cl)OC(=O)c2csc([C@H](O)CO)n2)C(C)C)n1` had a TGI of 33.6 µM.

Molecule `CC(=O)OCC1OC(N2C(C)=C(C(C)=O)C(c3ccc(Cl)cc3)C(C#N)=C2S)C(OC(C)=O)C(OC(C)=O)C1OC(C)=O` (stereo unspecified) yielded a total growth inhibition concentration (TGI) of over 100 µM.

In turn, `CC1(C)N/C(=C\[N+](=O)[O-])C(C)(C)N1O` yielded a TGI of over 10 µM.

Another assay has as its system OVCAR-3 ovarian. The assay is described as follows: DTP human tumour cell line panel, 48 h.
`COC(=O)c1csc([C@@H](OC(=O)[C@H](C)[C@H](CCCC(C)(Cl)Cl)OC(=O)c2csc([C@H](O)CO)n2)C(C)C)n1` gave a concentration for total growth inhibition (TGI) of 30.8 µM.

For `CC(=O)OCC1OC(N2C(C)=C(C(C)=O)C(c3ccc(Cl)cc3)C(C#N)=C2S)C(OC(C)=O)C(OC(C)=O)C1OC(C)=O` (stereo unspecified), the TGI is over 100 µM.

In turn, `CC1(C)N/C(=C\[N+](=O)[O-])C(C)(C)N1O` returned a TGI of over 10 µM.

A further assay has as its system UACC-257 melanoma. The assay is described as follows: DTP human tumour cell line panel, 48 h.
`COC(=O)c1csc([C@@H](OC(=O)[C@H](C)[C@H](CCCC(C)(Cl)Cl)OC(=O)c2csc([C@H](O)CO)n2)C(C)C)n1`: the total growth inhibition concentration (TGI) is 23.1 µM.

The molecule `CC(=O)OCC1OC(N2C(C)=C(C(C)=O)C(c3ccc(Cl)cc3)C(C#N)=C2S)C(OC(C)=O)C(OC(C)=O)C1OC(C)=O` (stereo unspecified) showed a TGI of over 100 µM.

In turn, `C=C(C)C1CC2(C)C(C)CC(O)CC2C(OC(=O)C=C(C)C)C1O` (stereo unspecified) displayed a total growth inhibition concentration (TGI) of over 100 µM.

As for `CC1(C)N/C(=C\[N+](=O)[O-])C(C)(C)N1O`, the total growth inhibition concentration (TGI) is over 10 µM.

For a further assay, the system named is OVCAR-8 ovarian. As to the kind of experiment: DTP human tumour cell line panel, 48 h.
The molecule `COC(=O)c1csc([C@@H](OC(=O)[C@H](C)[C@H](CCCC(C)(Cl)Cl)OC(=O)c2csc([C@H](O)CO)n2)C(C)C)n1` gave a TGI of 22.4 µM.

`CC(=O)OCC1OC(N2C(C)=C(C(C)=O)C(c3ccc(Cl)cc3)C(C#N)=C2S)C(OC(C)=O)C(OC(C)=O)C1OC(C)=O` (stereo unspecified) returned a TGI of over 100 µM.

The molecule `C=C(C)C1CC2(C)C(C)CC(O)CC2C(OC(=O)C=C(C)C)C1O` (stereo unspecified) had a TGI of over 100 µM.

Molecule `CC1(C)N/C(=C\[N+](=O)[O-])C(C)(C)N1O` showed a concentration for total growth inhibition (TGI) of over 10 µM.

A further assay deals with IGROV1 ovarian. As to the kind of experiment: DTP human tumour cell line panel, 48 h.
In turn, `COC(=O)c1csc([C@@H](OC(=O)[C@H](C)[C@H](CCCC(C)(Cl)Cl)OC(=O)c2csc([C@H](O)CO)n2)C(C)C)n1` came in with a total growth inhibition concentration (TGI) of 24.1 µM.

In turn, `CC(=O)OCC1OC(N2C(C)=C(C(C)=O)C(c3ccc(Cl)cc3)C(C#N)=C2S)C(OC(C)=O)C(OC(C)=O)C1OC(C)=O` (stereo unspecified) came in with a total growth inhibition concentration (TGI) of over 100 µM.

As for `C=C(C)C1CC2(C)C(C)CC(O)CC2C(OC(=O)C=C(C)C)C1O` (stereo unspecified), the concentration for total growth inhibition (TGI) was over 100 µM.

In turn, `CC1(C)N/C(=C\[N+](=O)[O-])C(C)(C)N1O` showed a TGI of over 10 µM.

The test system of another assay is MCF7 breast. As to the kind of experiment: DTP human tumour cell line panel, 48 h.
Turning to `COC(=O)c1csc([C@@H](OC(=O)[C@H](C)[C@H](CCCC(C)(Cl)Cl)OC(=O)c2csc([C@H](O)CO)n2)C(C)C)n1`, the TGI amounted to 35 µM.

`CC(=O)OCC1OC(N2C(C)=C(C(C)=O)C(c3ccc(Cl)cc3)C(C#N)=C2S)C(OC(C)=O)C(OC(C)=O)C1OC(C)=O` (stereo unspecified) returned a TGI of over 100 µM.

For `C=C(C)C1CC2(C)C(C)CC(O)CC2C(OC(=O)C=C(C)C)C1O` (stereo unspecified), the TGI is 86 µM.

In the case of `CC1(C)N/C(=C\[N+](=O)[O-])C(C)(C)N1O`, the concentration for total growth inhibition (TGI) was over 10 µM.

In the next assay the test system is K-562 leukemia. As to the kind of experiment: DTP human tumour cell line panel, 48 h.
For the molecule `COC(=O)c1csc([C@@H](OC(=O)[C@H](C)[C@H](CCCC(C)(Cl)Cl)OC(=O)c2csc([C@H](O)CO)n2)C(C)C)n1`, the TGI was 33.6 µM.

For `CC(=O)OCC1OC(N2C(C)=C(C(C)=O)C(c3ccc(Cl)cc3)C(C#N)=C2S)C(OC(C)=O)C(OC(C)=O)C1OC(C)=O` (stereo unspecified), the concentration for total growth inhibition (TGI) was over 100 µM.

These data come from PubChem BioAssay (NCI).
